Assay results taken from ChEMBL document CHEMBL1129962, “Nonsteroidal anti-inflammatory drugs as scaffolds for the design of 5-lipoxygenase inhibitors” (J Med Chem, 1997).

Columns and labels:
[1] = molecular target: T1, Prostaglandin G/H synthase 2 (Homo sapiens) (UniProt P35354); experiment: Inhibition activity against recombinant human Prostaglandin G/H synthase 2; design: concentration or dose not given beside the values; conditions: concentration not given here
T1 sequence (whole entry): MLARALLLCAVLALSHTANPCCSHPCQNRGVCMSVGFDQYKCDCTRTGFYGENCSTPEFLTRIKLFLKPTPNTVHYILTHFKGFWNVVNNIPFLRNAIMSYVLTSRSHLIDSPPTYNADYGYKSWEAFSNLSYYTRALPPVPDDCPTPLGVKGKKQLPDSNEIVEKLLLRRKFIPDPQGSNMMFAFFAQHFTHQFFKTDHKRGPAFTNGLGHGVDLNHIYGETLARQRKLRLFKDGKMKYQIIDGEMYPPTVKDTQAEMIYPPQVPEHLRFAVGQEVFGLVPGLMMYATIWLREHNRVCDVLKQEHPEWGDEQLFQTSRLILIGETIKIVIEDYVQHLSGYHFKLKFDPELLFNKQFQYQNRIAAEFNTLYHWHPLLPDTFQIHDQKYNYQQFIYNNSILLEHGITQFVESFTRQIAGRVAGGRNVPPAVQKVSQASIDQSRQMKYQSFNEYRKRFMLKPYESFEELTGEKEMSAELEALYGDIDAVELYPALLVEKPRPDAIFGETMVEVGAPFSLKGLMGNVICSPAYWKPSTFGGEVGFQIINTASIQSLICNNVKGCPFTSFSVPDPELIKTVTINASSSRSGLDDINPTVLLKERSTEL

[2] = molecular target: Prostaglandin G/H synthase 1 (Homo sapiens) (UniProt P23219); experiment: Inhibition activity against recombinant human Prostaglandin G/H synthase 1; design: concentration or dose not given beside the values; conditions: concentration not given here
Prostaglandin G/H synthase 1 (Homo sapiens), sequence (P23219 whole entry): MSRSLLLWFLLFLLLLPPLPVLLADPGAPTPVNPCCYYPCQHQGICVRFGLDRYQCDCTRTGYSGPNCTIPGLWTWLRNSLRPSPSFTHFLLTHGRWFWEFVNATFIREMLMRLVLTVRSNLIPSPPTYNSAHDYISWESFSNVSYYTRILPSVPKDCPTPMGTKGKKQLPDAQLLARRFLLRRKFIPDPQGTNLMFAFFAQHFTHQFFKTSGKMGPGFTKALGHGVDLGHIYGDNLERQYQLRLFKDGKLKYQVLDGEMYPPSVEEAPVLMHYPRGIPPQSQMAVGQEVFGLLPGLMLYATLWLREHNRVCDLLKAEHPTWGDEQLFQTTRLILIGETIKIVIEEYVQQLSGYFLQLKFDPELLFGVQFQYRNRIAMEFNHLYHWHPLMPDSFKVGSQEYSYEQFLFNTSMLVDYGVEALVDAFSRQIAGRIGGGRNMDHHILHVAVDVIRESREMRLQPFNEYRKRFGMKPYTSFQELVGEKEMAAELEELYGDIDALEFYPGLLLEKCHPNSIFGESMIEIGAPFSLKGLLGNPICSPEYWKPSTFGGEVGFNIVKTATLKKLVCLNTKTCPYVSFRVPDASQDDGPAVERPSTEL

[3] = molecular target: T2, Polyunsaturated fatty acid 5-lipoxygenase (Homo sapiens, UniProt P09917); experiment: Inhibitory activity against 5-lipoxygenase in Human whole blood (HWBL) stimulated with calcium ionophore (A23187) and LTB4 measured by enzyme immunoassay; format: functional, tissue-based
T2 sequence (P09917 whole entry): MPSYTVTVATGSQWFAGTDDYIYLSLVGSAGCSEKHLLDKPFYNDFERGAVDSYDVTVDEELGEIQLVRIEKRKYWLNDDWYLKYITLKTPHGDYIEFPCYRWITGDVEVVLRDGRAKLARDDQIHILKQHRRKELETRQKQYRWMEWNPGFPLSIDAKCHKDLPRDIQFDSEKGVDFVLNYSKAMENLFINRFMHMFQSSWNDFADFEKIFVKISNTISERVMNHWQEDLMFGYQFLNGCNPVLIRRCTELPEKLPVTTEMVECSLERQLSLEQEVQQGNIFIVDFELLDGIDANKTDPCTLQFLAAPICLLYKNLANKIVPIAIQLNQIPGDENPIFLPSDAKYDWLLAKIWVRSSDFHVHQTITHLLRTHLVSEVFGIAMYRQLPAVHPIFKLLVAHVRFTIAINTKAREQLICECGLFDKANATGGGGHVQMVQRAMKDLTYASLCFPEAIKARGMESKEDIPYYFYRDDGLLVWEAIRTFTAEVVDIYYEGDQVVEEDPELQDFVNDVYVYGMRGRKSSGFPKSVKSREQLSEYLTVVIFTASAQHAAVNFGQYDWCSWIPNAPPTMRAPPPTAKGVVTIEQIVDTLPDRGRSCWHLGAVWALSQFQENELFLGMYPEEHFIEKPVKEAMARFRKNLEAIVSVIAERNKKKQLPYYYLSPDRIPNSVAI

[4] = molecular target: T3, Polyunsaturated fatty acid 5-lipoxygenase (Rattus norvegicus, UniProt P12527); experiment: Inhibitory activity against 5-lipoxygenase catalysis (5-LO) in sonicated rat basophilic leukemia cell lysate; format: functional
T3 sequence (P12527 whole entry): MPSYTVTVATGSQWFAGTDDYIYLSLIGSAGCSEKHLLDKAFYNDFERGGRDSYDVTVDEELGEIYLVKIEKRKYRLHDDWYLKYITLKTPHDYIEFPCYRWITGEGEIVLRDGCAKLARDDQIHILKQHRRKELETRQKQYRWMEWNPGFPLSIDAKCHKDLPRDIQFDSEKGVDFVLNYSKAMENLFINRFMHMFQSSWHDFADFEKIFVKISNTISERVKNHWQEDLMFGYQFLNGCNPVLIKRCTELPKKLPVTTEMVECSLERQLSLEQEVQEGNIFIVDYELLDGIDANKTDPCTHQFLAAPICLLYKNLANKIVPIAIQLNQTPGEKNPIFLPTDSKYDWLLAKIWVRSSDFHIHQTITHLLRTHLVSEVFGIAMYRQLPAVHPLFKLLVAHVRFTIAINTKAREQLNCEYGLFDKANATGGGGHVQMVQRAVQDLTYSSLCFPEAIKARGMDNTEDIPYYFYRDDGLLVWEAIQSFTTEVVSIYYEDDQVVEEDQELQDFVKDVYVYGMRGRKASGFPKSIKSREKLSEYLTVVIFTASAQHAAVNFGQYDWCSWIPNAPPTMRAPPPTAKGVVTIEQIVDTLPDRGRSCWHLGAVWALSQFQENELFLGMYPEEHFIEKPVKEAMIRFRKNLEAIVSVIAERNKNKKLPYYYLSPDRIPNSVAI

Compound | inhibition [1] | inhibition [2] | IC50 [3] | IC50 [4]
CC(c1cc2ccccc2s1)N(O)C(N)=O (stereo not drawn) | 0% | 0% |  | 
CC(C)Cc1ccc(C(C)NC(=O)NO)cc1 (stereo not drawn) | 0% | 51% | 23000 nM | 
CC(C)Cc1ccc(C(C)N(O)C(N)=O)cc1 (stereo not drawn) | 0% | 37% | 2500 nM | 600 nM

Results, then the molecule that gave them:

inhibition [1] | inhibition [2] | IC50 [3] | IC50 [4] | Compound
48% | 9% | 6100 nM |  | COc1ccc2c(c1)c(CCN(O)C(N)=O)c(C)n2C(=O)c1ccc(Cl)cc1
88% | 64% | 1000 nM | 200 nM | COc1ccc2c(c1)c(CNC(=O)N(C)O)c(C)n2C(=O)c1ccc(Cl)cc1
2% | 0% | 7100 nM |  | COc1ccc2cc([C@H](C)NC(=O)NO)ccc2c1
0% | 0% | 1600 nM | 400 nM | COc1ccc2cc([C@H](C)N(O)C(N)=O)ccc2c1
